Measured values reported in a compilation of properties of binary mixtures (doi:10.1021/acs.jced.6b00596).

Experiment: xn = mol fraction of the nth substance listed
Conditions: 100 kPa

COCCOCCOCCOCCOC + CCCCCC[n+]1ccn(C)c1.O=S(=O)([N-]S(=O)(=O)C(F)(F)F)C(F)(F)F
viscosity [mPa·s]
Conditions	x1 = 0.099	x1 = 0.19	x1 = 0.276	x1 = 0.413	x1 = 0.544
278.15 K	171	130	109	78	50
283.15 K	126	97	81	60	–
288.15 K	–	74	63	–	–
293.15 K	74	57	–	–	–

CC(=O)[O-].CCCCCCCCCCCCCC[P+](CCCCCC)(CCCCCC)CCCCCC + COCCOCCOCCOCCOC
viscosity [mPa·s]
Conditions	278.15 K	283.15 K	288.15 K	293.15 K	298.15 K	303.15 K	308.15 K	313.15 K	318.15 K	323.15 K
x2 = 0.103	1160	789	–	392	–	216	166	–	103	84
x2 = 0.207	–	–	332	244	184	142	112	89	73	60
x2 = 0.299	401	291	215	162	125	99	79	64	53	–
x2 = 0.4	257	191	–	111	–	70	57	–	–	–
x2 = 0.499	–	121	92	73	58	–	–	–	–	–

CCC=C[n+]1ccn(C)c1C.O=[N+]([O-])c1cn[n-]c1 + COCCOCCOCCOCCOC
viscosity [mPa·s]
Conditions	278.15 K	283.15 K	288.15 K	293.15 K	298.15 K	303.15 K	308.15 K	313.15 K	318.15 K	323.15 K
x1 = 0.4	70	51	–	–	–	–	–	–	–	–
x1 = 0.5	139	97	70	53	–	–	–	–	–	–
x1 = 0.601	–	176	121	–	65	–	–	–	–	–
x1 = 0.701	622	385	249	169	–	89	69	53	–	–
x1 = 0.801	1280	737	447	288	195	–	101	77	60	–
x1 = 0.9	2810	–	–	525	338	228	161	–	89	70
x1 = 0.952	–	2200	–	706	–	289	204	140	104	–

CCCCCCCCCCCCCC[P+](CCCCCC)(CCCCCC)CCCCCC.O=[N+]([O-])c1c[n-]cn1 + COCCOCCOCCOCCOC
viscosity [mPa·s]
Conditions	278.15 K	283.15 K	288.15 K	293.15 K	298.15 K	303.15 K	308.15 K	313.15 K	318.15 K	323.15 K
x2 = 0.189	–	–	726	522	384	290	222	173	138	111
x2 = 0.404	443	324	240	180	135	–	85	70	57	–

CCCCCCCCCCCC[P+](CCCC)(CCCC)CCCC.c1c[n-]nn1 + COCCOCCOCCOCCOC
viscosity [mPa·s]
Conditions	x2 = 0.062	x2 = 0.123	x2 = 0.155	x2 = 0.214	x2 = 0.305	x2 = 0.395	x2 = 0.495	x2 = 0.596
278.15 K	1980	1230	907	671	–	226	131	–
283.15 K	1260	809	608	458	256	165	98	57
288.15 K	824	–	419	320	186	–	75	–
293.15 K	557	–	297	231	139	95	–	–
298.15 K	389	276	218	171	–	74	–	–
303.15 K	280	203	164	130	84	59	–	–

CCCCCCCC[P+](CC)(CC)CC.O=[N+]([O-])c1c[n-]cn1 + COCCOCCOCCOCCOC
viscosity [mPa·s]
Conditions	278.15 K	283.15 K	288.15 K	293.15 K	298.15 K	303.15 K	308.15 K	313.15 K	318.15 K	323.15 K
x1 = 0.499	77	60	–	–	–	–	–	–	–	–
x1 = 0.599	–	93	72	56	–	–	–	–	–	–
x1 = 0.699	–	153	–	87	69	55	–	–	–	–
x1 = 0.8	385	274	198	148	113	88	70	57	–	–
x1 = 0.9	700	481	337	243	–	137	107	85	69	56
x1 = 1	–	838	–	398	286	212	160	124	98	78

CCCCCCCC[P+](CC)(CC)CC.O=[N+]([O-])c1cn[n-]c1 + COCCOCCOCCOCCOC
viscosity [mPa·s]
Conditions	278.15 K	283.15 K	288.15 K	293.15 K	298.15 K	303.15 K	308.15 K	313.15 K	318.15 K	323.15 K
x2 = 0	1340	–	–	398	282	207	155	119	–	75
x2 = 0.051	1010	666	452	317	229	–	130	101	80	65
x2 = 0.102	693	471	–	234	172	130	101	80	64	52
x2 = 0.199	395	277	199	147	112	87	–	–	–	–
x2 = 0.3	229	166	123	94	73	58	–	–	–	–
x2 = 0.404	129	–	74	59	–	–	–	–	–	–
x2 = 0.503	–	60	–	–	–	–	–	–	–	–

CCCCCC[n+]1ccn(C)c1.O=S(=O)([N-]S(=O)(=O)C(F)(F)F)C(F)(F)F + COCCOCCOCCOCCOC
x2 = 0
Conditions	viscosity [mPa·s]
278.15 K	204
283.15 K	151
288.15 K	115
293.15 K	89

CCCCCC[n+]1ccn(C)c1C.O=S(=O)([N-]S(=O)(=O)C(F)(F)F)C(F)(F)F + COCCOCCOCCOCCOC
Conditions	viscosity [mPa·s]
278.15 K, x2 = 0	485
278.15 K, x2 = 0.102	370
278.15 K, x2 = 0.205	251
278.15 K, x2 = 0.306	161
278.15 K, x2 = 0.399	109
278.15 K, x2 = 0.499	70
278.15 K, x2 = 0.599	48
283.15 K, x2 = 0	335
283.15 K, x2 = 0.102	258
283.15 K, x2 = 0.205	177
283.15 K, x2 = 0.306	116
283.15 K, x2 = 0.399	81
283.15 K, x2 = 0.499	53
288.15 K, x2 = 0	236
288.15 K, x2 = 0.102	184
288.15 K, x2 = 0.205	129
288.15 K, x2 = 0.306	86
288.15 K, x2 = 0.399	61
293.15 K, x2 = 0	172
293.15 K, x2 = 0.205	96
298.15 K, x2 = 0.205	74
303.15 K, x2 = 0	99
303.15 K, x2 = 0.102	80
303.15 K, x2 = 0.205	58
308.15 K, x2 = 0	78
313.15 K, x2 = 0	63
313.15 K, x2 = 0.102	52

CCCC[P+](CC)(CC)CC.Cc1ncc([N+](=O)[O-])[n-]1 + COCCOCCOCCOCCOC
viscosity [mPa·s]
Conditions	278.15 K	283.15 K	288.15 K	293.15 K	298.15 K	303.15 K	308.15 K	313.15 K	318.15 K	323.15 K
x2 = 0.048	–	975	634	428	299	215	–	121	94	74
x2 = 0.102	972	–	421	291	–	153	116	–	71	57
x2 = 0.201	516	350	243	175	–	99	77	62	–	–
x2 = 0.299	258	183	134	100	76	60	–	–	–	–
x2 = 0.401	134	–	74	57	–	–	–	–	–	–
x2 = 0.501	74	–	–	–	–	–	–	–	–	–

CCCn1cc[n+](C)c1C.O=[N+]([O-])c1cn[n-]c1 + COCCOCCOCCOCCOC
viscosity [mPa·s]
Conditions	278.15 K	283.15 K	288.15 K	293.15 K	298.15 K	303.15 K	308.15 K	313.15 K	318.15 K	323.15 K
x2 = 0.05	5420	2660	1400	798	487	314	213	150	111	84
x2 = 0.1	3220	–	–	552	350	234	163	118	90	70
x2 = 0.201	1300	–	–	287	194	137	100	–	59	–
x2 = 0.302	546	338	218	149	106	79	61	–	–	–
x2 = 0.399	–	167	115	83	–	–	–	–	–	–
x2 = 0.499	125	–	64	–	–	–	–	–	–	–
x2 = 0.6	65	–	–	–	–	–	–	–	–	–
